This note sets out measurements from US20040023853A1, “Antagonistic peptides of prostaglandin E2 receptor subtype EP4” (priority 2002, published 2004).

Values after ≈ are worked out from the molar mass of the structure shown. Non-standard residues stand in square brackets, D forms with d. Residues, ends and D or L forms follow the SMILES beside them. Bip = N[C@@H](Cc1ccc(-c2ccccc2)cc1)C(=O)O; dBip = N[C@H](Cc1ccc(-c2ccccc2)cc1)C(=O)O

Data set [1] can be described thus: Solubility of the peptides in water. It counts as physicochemical. The following applies: for solubility: determined in water. The procedure:
Several peptides, based on the structure of 213.15 (SEQ ID NO: 1), were synthesized using F-moc chemistry and the solid phase Merrifield peptide method. The purity of the trifluoroacetate salts of these peptides was assessed by HPLC and mass spectroscopy. The general synthesis methods will be better understood by referring to the following treatises: “Solid phase peptide synthesis”, Stewart & Young, W. H. Freeman Co. San Francisco, 1969; “The proteins”, Erikson and Merrifield, Vol. 2. (ed. Neurath & Hill), Academic Press, New York. 1976.

Data set [2] has as its system rat model of ischemic nephropathy. The data set is described as follows: Rat model of ischemic nephropathy (bilateral renal artery occlusion): GFR, urine flow, renal plasma flow, BUN/creatinine, histology. Format: in vivo, Sprague-Dawley rats. The following applies: 213.29 1 mg/kg iv bolus. The procedure: Bilateral clamping of the renal arteries for 30-60 minutes results in the […] of the kidneys and associated sequelae such as a dramatic decrease in glomerular filtration rate, urine output and tubular cell death. This model reproduces some important consequences of oligouric renal failure in humans. The efficacy of various 213.15 derivatives in reversing the renal damage was measured.
Sprague-Dawley rats (250-300 g) were anesthetized and the jugular vein was canulated for infusion with the peptide or with saline. In addition, the carotid artery was canulated to measure the arterial blood pressure with a pressure transducer (Gould) and to collect blood samples. The urinary bladder was canulated to collect urine. After catheterization, an infusion (1.6 ml/hr) of a mixture of [^3H] inulin (8 μCi/hr), [^14C] aminohippuric acid (0.8 μCi/hr) and anesthetics (ketamine and xylazine; 9:1 w:w; 0.095 ml/ml) was started. The animals were allowed to stabilize for a further 40 minutes. Two urine samples were collected over 10 minute periods, (from 40 to 50 minutes, and from 50 to 60 minutes) to assess the stability of the basal GFR. Blood samples were collected at 45 and 55 minutes respectively. The left and right renal arteries were then clamped for a period of 60 minutes to induce an acute renal ischemia. After the ischemic period, the animals were treated with peptides, 213.19-213.30, (1 mg/kg iv bolus) or with saline via the jugular vein. Blood and urine samples were then collected every 20 minutes for an additional period of 2 hours. Glomerular filtration rates (GFR) and urine flow rates, (measured by the [^3H] inulin method) as well as renal plasma flow (measured by the [^14C] aminohippuric acid method), were determined at different times and averaged for a 60 minute (20-80 minutes following the drug administration) period.
The efficacy of fenoldopam and 213.29, in improving kidney function in the rat model of ischemic nephropathy (described in Example 2) was compared. […]

[3] abbreviates: fenoldopam 0.6 μg/kg iv bolus then 0.6 μg/kg/h.

Turning to `CC(C)C[C@@H](NC(=O)[C@@H](C)NC(=O)[C@@H](CCC(=O)O)NC(=O)[C@@H](Cc1ccc(O)cc1)NC(=O)[C@@H](CCC(=O)O)NC(=O)[C@@H](CO)NC(=O)[C@H](NC(=O)[C@H](N)Cc1ccc(-c2ccccc2)cc1)[C@H](C)O)C(=O)O` [Peptide 213.15, (bip)tseyeal] (H-[dBip][dT][dS][dE][dY][dE][dA][dL]-OH; N-terminus and C-terminus assumed), in data set [1], the “solubility (in words)” value is “poor solubility” and the solubility was found to be 0.2 mg/mL (≈ 0.193 mM).

In data set [1], `CC(C)C[C@@H](NC(=O)[C@@H](C)NC(=O)[C@@H](CCC(=O)O)NC(=O)[C@@H](Cc1ccc(O)cc1)NC(=O)[C@@H](CCC(=O)O)NC(=O)[C@@H](CO)NC(=O)[C@H](NC(=O)[C@H](N)Cc1ccc(-c2ccccc2)cc1)[C@H](C)O)C(=O)N[C@@H](CCCCN)C(=O)O` [Peptide 213.19, (bip)tseyealK] (H-[dBip][dT][dS][dE][dY][dE][dA][dL]K-OH; N-terminus and C-terminus assumed) gave a solubility of 2.8 mg/mL (≈ 2.41 mM). On the same count and under the same terms, as for `CC(C)C[C@@H](NC(=O)CNC(=O)[C@@H](CCC(=O)O)NC(=O)[C@@H](Cc1ccc(O)cc1)NC(=O)[C@@H](CCC(=O)O)NC(=O)[C@@H](CO)NC(=O)[C@H](NC(=O)[C@H](N)Cc1ccc(-c2ccccc2)cc1)[C@H](C)O)C(=O)N[C@@H](CCCCN)C(=O)O` [Peptide 213.20, (bip)tseyeglK] (H-[dBip][dT][dS][dE][dY][dE]G[dL]K-OH; N-terminus and C-terminus assumed), the figure is 1.15 mg/mL (≈ 1 mM).

In data set [1], `CC(C)C[C@@H](NC(=O)[C@@H](C)NC(=O)[C@@H](CCC(=O)O)NC(=O)[C@@H](Cc1ccc(O)cc1)NC(=O)[C@@H](CCC(=O)O)NC(=O)[C@@H](CO)NC(=O)[C@H](NC(=O)[C@H](N)Cc1ccc(-c2ccccc2)cc1)[C@H](C)O)C(=O)N[C@@H](CCCCN)C(=O)N[C@@H](CCCCN)C(=O)O` [Peptide 213.21, (bip)tseyealKK] (H-[dBip][dT][dS][dE][dY][dE][dA][dL]KK-OH; N-terminus and C-terminus assumed) displayed a solubility of 24.5 mg/mL (≈ 19 mM).

With `CC(C)C[C@@H](NC(=O)CNC(=O)[C@@H](CCC(=O)O)NC(=O)[C@@H](Cc1ccc(O)cc1)NC(=O)[C@@H](CCC(=O)O)NC(=O)[C@@H](CO)NC(=O)[C@H](NC(=O)[C@H](N)Cc1ccc(-c2ccccc2)cc1)[C@H](C)O)C(=O)N[C@@H](CCCCN)C(=O)N[C@@H](CCCCN)C(=O)O` [Peptide 213.22, (bip)tseyeglKK] (H-[dBip][dT][dS][dE][dY][dE]G[dL]KK-OH; N-terminus and C-terminus assumed), the concentration in solution in data set [1] (solubility) was 24.5 mg/mL (≈ 19.2 mM). Consider `CC(C)C[C@@H](NC(=O)[C@@H](CO)NC(=O)[C@@H](CCC(=O)O)NC(=O)[C@@H](Cc1ccc(O)cc1)NC(=O)[C@@H](CCC(=O)O)NC(=O)[C@@H](CO)NC(=O)[C@H](NC(=O)[C@H](N)Cc1ccc(-c2ccccc2)cc1)[C@H](C)O)C(=O)N[C@@H](CCCCN)C(=O)O` [Peptide 213.23, (bip)tseyeslK] (H-[dBip][dT][dS][dE][dY][dE][dS][dL]K-OH; N-terminus and C-terminus assumed), for which, in data set [1], the concentration in solution (solubility) was 13 mg/mL (≈ 11 mM).

As to `CC(C)C[C@@H](NC(=O)[C@@H](CO)NC(=O)[C@@H](CCC(=O)O)NC(=O)[C@@H](Cc1ccc(O)cc1)NC(=O)[C@@H](CCC(=O)O)NC(=O)[C@@H](CO)NC(=O)[C@H](NC(=O)[C@H](N)Cc1ccc(-c2ccccc2)cc1)[C@H](C)O)C(=O)N[C@@H](CCCCN)C(=O)N[C@@H](CCCCN)C(=O)O` [Peptide 213.24, (bip)tseyeslKK] (H-[dBip][dT][dS][dE][dY][dE][dS][dL]KK-OH; N-terminus and C-terminus assumed), in data set [1], the solubility came to 23.5 mg/mL (≈ 18 mM). Same read-out and setting: under `C[C@H](O)[C@@H](NC(=O)[C@H](N)Cc1ccc(-c2ccccc2)cc1)C(=O)N[C@H](CO)C(=O)N[C@H](CCC(=O)O)C(=O)N[C@H](Cc1ccc(O)cc1)C(=O)N[C@H](CCC(=O)O)C(=O)N[C@H](C)C(=O)N[C@@H](CCCCN)C(=O)O` [Peptide 213.25, (bip)tseyeaK] (H-[dBip][dT][dS][dE][dY][dE][dA]K-OH; N-terminus and C-terminus assumed) stands 6 mg/mL (≈ 5.71 mM).

`C[C@H](O)[C@@H](NC(=O)[C@H](N)Cc1ccc(-c2ccccc2)cc1)C(=O)N[C@H](CO)C(=O)N[C@H](CCC(=O)O)C(=O)N[C@H](Cc1ccc(O)cc1)C(=O)N[C@H](CCC(=O)O)C(=O)N[C@H](CO)C(=O)N[C@@H](CCCCN)C(=O)O` [Peptide 213.26, (bip)tseyesK] (H-[dBip][dT][dS][dE][dY][dE][dS]K-OH; N-terminus and C-terminus assumed) gave a solubility in data set [1] of 8 mg/mL (≈ 7.5 mM). The same measure, in the same setting: as for `CC(C)C[C@@H](NC(=O)[C@@H](C)NC(=O)[C@@H](CCC(=O)O)NC(=O)[C@@H](Cc1ccc(O)cc1)NC(=O)[C@@H](CCC(=O)O)NC(=O)[C@@H](CO)NC(=O)[C@H](NC(=O)[C@@H](N)Cc1ccc(-c2ccccc2)cc1)[C@H](C)O)C(=O)N[C@@H](CCCCN)C(=O)N[C@@H](CCCCN)C(=O)O` [Peptide 213.27, (Bip)tseyealKK] (H-[Bip][dT][dS][dE][dY][dE][dA][dL]KK-OH; N-terminus and C-terminus assumed), the figure is 23 mg/mL (≈ 17.8 mM). In turn, `CC(C)C[C@H](NC(=O)[C@@H](C)NC(=O)[C@@H](CCC(=O)O)NC(=O)[C@@H](Cc1ccc(O)cc1)NC(=O)[C@@H](CCC(=O)O)NC(=O)[C@@H](CO)NC(=O)[C@H](NC(=O)[C@H](N)Cc1ccc(-c2ccccc2)cc1)[C@H](C)O)C(=O)N[C@@H](CCCCN)C(=O)N[C@@H](CCCCN)C(=O)O` [Peptide 213.28, (bip)tseyeaLKK] (H-[dBip][dT][dS][dE][dY][dE][dA]LKK-OH; N-terminus and C-terminus assumed) came in with a solubility in data set [1] of 20 mg/mL (≈ 15.5 mM). Still for that read-out and setting: as for `CC(C)C[C@H](NC(=O)[C@@H](C)NC(=O)[C@@H](CCC(=O)O)NC(=O)[C@@H](Cc1ccc(O)cc1)NC(=O)[C@@H](CCC(=O)O)NC(=O)[C@@H](CO)NC(=O)[C@H](NC(=O)[C@@H](N)Cc1ccc(-c2ccccc2)cc1)[C@H](C)O)C(=O)N[C@@H](CCCCN)C(=O)N[C@@H](CCCCN)C(=O)O` [Peptide 213.29, (Bip)tseyeaLKK] (H-[Bip][dT][dS][dE][dY][dE][dA]LKK-OH; N-terminus and C-terminus assumed), the figure is 15.6 mg/mL (≈ 12.1 mM); as for `CC(C)C[C@@H](NC(=O)[C@@H](C)NC(=O)[C@@H](CCC(=O)O)NC(=O)[C@@H](Cc1ccc(O)cc1)NC(=O)[C@@H](CCC(=O)O)NC(=O)[C@@H](CO)NC(=O)[C@H](NC(=O)[C@H](N)Cc1ccc(-c2ccccc2)cc1)[C@H](C)O)C(=O)NCC(=O)N[C@@H](CCCCN)C(=O)N[C@@H](CCCCN)C(=O)O` [Peptide 213.30, (bip)tseyealGKK] (H-[dBip][dT][dS][dE][dY][dE][dA][dL]GKK-OH; N-terminus and C-terminus assumed), 16 mg/mL (≈ 11.9 mM). As for `Oc1ccc(C2CNCCc3c2cc(O)c(O)c3Cl)cc1` (centres unmarked) [fenoldopam, Fenoldopam], in data set [2] (setting [3]), the “renal perfusion and GFR” value is “only 213.29 was able to improve renal perfusion and GFR significantly”; the urine output entry is “increased urine output to a similar extent”. Also, the “blood urea nitrogen (BUN) and serum creatinine levels” value in data set [2] (after 72 hours, fenoldopam 0.6 μg/kg bolus then 0.6 μg/kg/h) is “equally efficacious in reducing BUN and creatinine levels”.
